This is an account of results in patent US7807658B2, “Use of GabaB receptor agonists” (AstraZeneca AB, priority 1999, dated 2010).

As a reminder, the melting point is the temperature of the solid-liquid transition. For `NCC(=O)C[PH](=O)O`, the melting point was 126 to 127 °C.
